These results are taken from the SangsterLogP compilation.

Take `COc1cccc(C(=O)NCCN2CCN(c3ccc(Cl)cn3)CC2)c1`: the logP was determined as 3.24.

In turn, `O=C(NCCN1CCN(c2ccc(Cl)cc2)CC1)c1ccc(F)cc1` showed a logP of 3.7.

`COc1cccc(C(=O)NCCN2CCN(c3ncccc3C#N)CC2)c1`: the logP amounted to 2.47.

For the compound `N#Cc1cccnc1N1CCN(CCNC(=O)c2ccc(F)cc2)CC1`, the logP was found to be 2.33.

For `N#Cc1ccc(N2CCN(CCNC(=O)c3ccc(F)cc3)CC2)cc1`, the logP was 3.02.

The compound `COc1cccc(C(=O)NCCN2CCN(c3ccc(C)cc3)CC2)c1` came in with a logP of 2.83.

With `O=C(NCCN1CCN(c2ccc(Cl)cn2)CC1)c1ccc(F)cc1`, the logP was found to be 3.36.

The compound `Cc1ccc(N2CCN(CCNC(=O)c3ccc(F)cc3)CC2)cc1` displayed a lipophilicity (logP) of 2.95.

For `COc1cccc(C(=O)NCCN2CCN(c3ccc(Cl)cc3)CC2)c1`, the logP is 3.31.
